We go through 1 molecule from article PMC9698340, “Discovery and SAR Study of Quinoxaline–Arylfuran Derivatives as a New Class of Antitumor Agents” (Pharmaceutics, 2022).

In one assay the test system is HCT116 cells. In words: CCK-8 antiproliferation assay, HCT116. The class given is cell-based. To be noted: Homo sapiens, HCT-116, 48 h. The protocol:
(§1) Human lung carcinoma cell lines A549, human cervical cancer cell lines HeLa, human prostate cancer cell lines PC3, human colorectal carcinoma cell lines HCT116, and human liver cells L02 were purchased from the Chinese Academy of Sciences Shanghai Cell Bank (Shanghai, China). HeLa, A549, PC3, HCT116, and L02 cells were cultured in DMEM Dulbecco’s Modified Eagle Medium (DMEM; Gibco Inc., Gaithersburg, MD, USA). All cultures were provided with 10% fetal bovine serum (FBS; YHSM, Beijing, China), 100 IU/mL penicillin, and 100 μg/mL streptomycin, and cells were incubated at 37 °C in an atmosphere of 5% CO2.
(§2) Cell viability was determined using a CCK-8 kit (Apexbio, Houston, TX, USA). […] Subsequently, absorbance was assessed at 450 nm. Three duplicates were set in each group.
(§3) All synthesized quinoxalines compounds were tested for in vitro cytotoxicity against four cancer cell lines (HeLa, PC3, A549, and HCT116). The inhibitory effects of these compounds were evaluated using the CCK-8 assay after treatment with 20 μM of each compound. […] The species of phenyl substituents have a significant effect on the activity. […] By comparison, hydrophobic substitution at the phenyl ring gave derivatives with relatively low potency (QW7–8). In addition, large substituents on the phenyl ring exerted an unfavorable influence on the potency of the compounds (QW8 and QW16).

Assay [1] concerns HeLa cells. Nature of the assay: Hoechst-33342 staining. The class given is cell-based, human. To be noted: 24 h, vs control. On the procedure:
HeLa cells (4 × 10^5 cells) were incubated in a 6-well plate for 12 h. The cells were then treated with QW12 at the indicated concentrations for 24 h. The cells were washed twice with PBS. The cells were then incubated with Hoechst-33342 (10 μg/mL) for 5 min at room temperature in darkness. After incubation, stained cells were observed under an inverted phase contrast microscope (OLYMPUS IX73, Tokyo, Japan).

For another assay, the system named is L02 cells. In words: CCK-8 cytotoxicity against normal hepatocytes L02. The class given is cell-based. To be noted: Homo sapiens, 48 h, read-out: IC50 ± SD, L02 (human normal hepatocytes). The protocol: as §1, §2
To further evaluate the anticancer effect of QW12, we evaluated its cytotoxicity against four human cancer cell lines: HeLa (Human cervical tumor), PC3 (Human prostate tumor), HCT116 (Human colorectal carcinomas), and A549 (Human lung carcinoma). […] Furthermore, the IC50 values of QW12 against PC3 and HCT116 were similar to those of nifuroxazide.

Assay [2] relates to HeLa cells. Nature of the assay: Intracellular ROS, DCFH-DA flow cytometry. To be noted: 10 and 40 μM, 6 h. The class given is cell-based, human. On the procedure:
Intracellular reactive oxygen species (ROS) were measured by 2,7-dichlorofluorescein diacetate (DCFH-DA) staining. HeLa cells were treated with QW12 at 10 μM and 40 μM for 6 h. After indicated treatment, cells were harvested and washed with PBS. Cells were incubated with 10 μM DCFH-DA at 37 °C for 30 min. Cells were washed twice, resuspended with PBS, and subjected to flow cytometry.

Assay [3] relates to HeLa cells. In words: CCK-8 antiproliferation assay, HeLa. The class given is cell-based. Conditions: Homo sapiens, 48 h. The protocol: as §1, §2, §3
A further assay relates to PC3 cells. In words: CCK-8 antiproliferation assay, PC3. It is filed as cell-based. Conditions: Homo sapiens, PC-3, 48 h. The protocol: as §1, §2, §3
Assay [4] has as its system STAT3 phosphorylation (Y705) in HeLa cells. Nature of the assay: Western blot of STAT3 Y705 phosphorylation. It is filed as cell-based, human. To be noted: 12 h. On the procedure:
HeLa cells were seeded in a 6-well plate overnight and treated with QW12 for 24 h. The cells were then harvested and washed with cold PBS and lysed with RIPA buffer supplemented with a protease and phosphatase inhibitor cocktail. Protein concentration was measured using a BCA protein assay kit (Boster Biological Technology Co., Ltd., Wuhan, China). Proteins were separated by 10% SDS-PAGE gel and transferred onto polyvinylidene difluoride (PVDF) membranes (Millipore Co., Billerica, MA, USA). After blocking with 5% mild in PBST for 1 h at room temperature, membranes were incubated with specific primary antibodies against STAT3 (#ET1605-45), Bcl-2 (#ET1603-11), Bax (#ET1603-34), or GAPDH (#HA721136) overnight at 4 °C. The above antibodies were purchased from HUABIO, China. Phospho-STAT3 (Tyr 705) (#9145S) and anti-rabbit IgG, HRP-linked antibody (#7074S) were purchased from Cell Signaling Technology, Inc. America. […]
The activation of STAT3 is tightly regulated during various physiological processes, and the aberrant and persistent activation of STAT3 has been found in various types of cancer. […] Western blot analysis determined whether QW12 could also regulate the STAT3 signaling pathway in HeLa cells. HeLa cells were treated with QW12 for 12 h, and total cell lysates were prepared; Y705-phosphorylated STAT3 proteins were detected using a specific antibody.

For `COc1cc(-c2ccc(/C=N/NC(=O)c3ccc(O)cc3)o2)c(OC)cc1-c1ccc2nccnc2c1` [QW12, (E)-N’-((5-(2,5-dimethoxy-4-(quinoxalin-6-yl)phenyl)furan-2-yl)methylene)-4-hydroxybenzohydrazide], the inhibition at 20 µM in the assay on HCT116 cells (20 μM, CCK-8, mean ± SD, read-out: Inhibition Rate (%) at 20 μM, HCT116) was 65.43 ± 0.27%; in the assay with HeLa cells [3] (20 μM, CCK-8, mean ± SD, read-out: Inhibition Rate (%) at 20 μM, HeLa), 76.35 ± 0.11%; in the assay with PC3 cells (20 μM, CCK-8, mean ± SD, read-out: Inhibition Rate (%) at 20 μM, PC3), 52.55 ± 0.47%. Moreover, the IC50 in the assay on HCT116 cells (CCK-8, read-out: IC50 ± SD, HCT116) was 12.2 ± 0.25 µM; in the assay with L02 cells, more than 50 µM; in the assay with HeLa cells [3] (HeLa, CCK-8, read-out: IC50 ± SD, HeLa), 10.58 ± 0.1 µM; with PC3 cells (CCK-8, read-out: IC50 ± SD, PC3) it was 12.7 ± 0.57 µM. Also, in the assay on HeLa cells [1], the “nuclear morphology (Hoechst staining)” value is recorded as “significant apoptotic morphological characteristics were observed”. Also, the “effect on ROS accumulation” value with HeLa cells [2] is reported as “stimulates ROS accumulation in a dose-dependent manner”. Besides, the “effect on STAT3 Tyr705 phosphorylation” value in assay [4] is reported as “inhibited Tyr705 phosphorylation in a dose-dependent manner”. Also, the “effect on total STAT3 level” value in assay [4] is listed as “also decreased”.
